From ChEMBL document CHEMBL1201862, “PubChem BioAssay data set” (2004)
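Briefly, cells in 96-well plates were exposed to five compound concentrations for 48 h, and endpoints were estimated by linear interpolation. Abbreviation: GI50, concentration required for 50% inhibition of growth.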 Activity calls are given as the source filed them. No stated cut-off is given here; in the data, active = GI50 up to about 1.1 µM and inactive = higher.

Experiments:
Assay in all cases: NCI tumour cell line growth inhibition, 48 h
786-0 = system: 786-0
A498 = system: A498
CCRF-CEM = system: CCRF-CEM
COLO 205 = system: COLO 205
DU-145 = system: DU-145
EKVX = system: EKVX
HCC 2998 = system: HCC 2998
HL-60 = system: HL-60
HOP-62 = system: HOP-62
Hs-578T = system: Hs-578T
IGROV-1 = system: IGROV-1
KM12 = system: KM12
MCF7 = system: MCF7
MDA-MB-231 = system: MDA-MB-231
MDA-MB-435 = system: MDA-MB-435
MDA-N = system: MDA-N
MOLT-4 = system: MOLT-4
Malme-3M = system: Malme-3M
NCI-H226 = system: NCI-H226
NCI-H460 = system: NCI-H460
NCI-H522 = system: NCI-H522
NCI/ADR-RES = system: NCI/ADR-RES
OVCAR-3 = system: OVCAR-3
PC-3 = system: PC-3
RPMI-8226 = system: RPMI-8226
SF-539 = system: SF-539
SK-MEL-28 = system: SK-MEL-28
SK-MEL-2 = system: SK-MEL-2
SK-MEL-5 = system: SK-MEL-5
SNB-19 = system: SNB-19
SW-620 = system: SW-620
T47D = system: T47D
U-251 = system: U-251
UACC-257 = system: UACC-257
UACC-62 = system: UACC-62
UO-31 = system: UO-31
A549 = system: A549
ACHN = system: ACHN
CAKI-1 = system: CAKI-1
HCT-116 = system: HCT-116
HCT-15 = system: HCT-15
HOP-92 = system: HOP-92
HT-29 = system: HT-29
K562 = system: K562
LOX IMVI = system: LOX IMVI
M14 = system: M14
NCI-H23 = system: NCI-H23
OVCAR-4 = system: OVCAR-4
OVCAR-5 = system: OVCAR-5
OVCAR-8 = system: OVCAR-8
RXF 393 = system: RXF 393
SF-268 = system: SF-268
SF-295 = system: SF-295
SK-OV-3 = system: SK-OV-3
SN12C = system: SN12C
SNB-75 = system: SNB-75
SR = system: SR
TK-10 = system: TK-10

## CN(C)C1COC2Cc3ccccc3C1O2 (stereo unspecified)
786-0
  GI50: > 100 µM (inactive)
A498
  GI50: > 100 µM (inactive)
CCRF-CEM
  GI50: > 100 µM (inactive)
COLO 205
  GI50: > 100 µM (inactive)
DU-145
  GI50: > 100 µM (inactive)
EKVX
  GI50: > 100 µM (inactive)
HCC 2998
  GI50: > 100 µM (inactive)
HL-60
  GI50: > 100 µM (inactive)
HOP-62
  GI50: > 100 µM (inactive)
Hs-578T
  GI50: > 100 µM (inactive)
IGROV-1
  GI50: > 100 µM (inactive)
KM12
  GI50: > 100 µM (inactive)
MCF7
  GI50: > 100 µM (inactive)
MDA-MB-231
  GI50: > 100 µM (inactive)
MDA-MB-435
  GI50: > 100 µM (inactive)
MDA-N
  GI50: > 100 µM (inactive)
MOLT-4
  GI50: > 100 µM (inactive)
Malme-3M
  GI50: > 100 µM (inactive)
NCI-H226
  GI50: > 100 µM (inactive)
NCI-H460
  GI50: > 100 µM (inactive)
NCI-H522
  GI50: > 100 µM (inactive)
NCI/ADR-RES
  GI50: > 100 µM (inactive)
OVCAR-3
  GI50: > 100 µM (inactive)
PC-3
  GI50: > 100 µM (inactive)
RPMI-8226
  GI50: > 100 µM (inactive)
SF-539
  GI50: > 100 µM (inactive)
SK-MEL-28
  GI50: > 100 µM (inactive)
SK-MEL-2
  GI50: > 100 µM (inactive)
SK-MEL-5
  GI50: > 100 µM (inactive)
SNB-19
  GI50: > 100 µM (inactive)
SW-620
  GI50: > 100 µM (inactive)
T47D
  GI50: > 100 µM (inactive)
U-251
  GI50: > 100 µM (inactive)
UACC-257
  GI50: > 100 µM (inactive)
UACC-62
  GI50: > 100 µM (inactive)
UO-31
  GI50: > 100 µM (inactive)

## COC(=O)CCCC1(CCCC(=O)OC)CCCCCCCCC(CCCC(=O)OC)(CCCC(=O)OC)C(=O)C1=O
786-0
  GI50: 17.1 µM (inactive)
A498
  GI50: > 100 µM (inactive)
A549
  GI50: 11.6 µM (inactive)
ACHN
  GI50: 40.2 µM (inactive)
CAKI-1
  GI50: 9.84 µM (inactive)
COLO 205
  GI50: > 100 µM (inactive)
DU-145
  GI50: > 100 µM (inactive)
EKVX
  GI50: > 100 µM (inactive)
HCC 2998
  GI50: > 100 µM (inactive)
HCT-116
  GI50: 9.44 µM (inactive)
HCT-15
  GI50: > 100 µM
HL-60
  GI50: 2.17 µM (inactive)
HOP-62
  GI50: 38.5 µM (inactive)
HOP-92
  GI50: 20.6 µM (inactive)
HT-29
  GI50: 43.5 µM (inactive)
Hs-578T
  GI50: 14.8 µM (inactive)
IGROV-1
  GI50: 18.4 µM (inactive)
K562
  GI50: 4.78 µM (inactive)
KM12
  GI50: 38.8 µM (inactive)
LOX IMVI
  GI50: 23 µM (inactive)
M14
  GI50: 70.1 µM (inactive)
MCF7
  GI50: 85.5 µM (inactive)
MDA-MB-435
  GI50: 86.1 µM (inactive)
MDA-N
  GI50: > 100 µM (inactive)
Malme-3M
  GI50: 26.1 µM (inactive)
NCI-H226
  GI50: > 100 µM (inactive)
NCI-H23
  GI50: 18.6 µM (inactive)
NCI-H460
  GI50: 88.1 µM (inactive)
NCI-H522
  GI50: 2.24 µM (inactive)
NCI/ADR-RES
  GI50: 40.2 µM (inactive)
OVCAR-3
  GI50: 22.9 µM (inactive)
OVCAR-4
  GI50: 17.3 µM (inactive)
OVCAR-5
  GI50: > 100 µM (inactive)
OVCAR-8
  GI50: 50.7 µM (inactive)
PC-3
  GI50: 21.2 µM (inactive)
RPMI-8226
  GI50: < 0.01 µM (active)
RXF 393
  GI50: 1.6 µM (inactive)
SF-268
  GI50: 19.2 µM (inactive)
SF-295
  GI50: > 100 µM (inactive)
SF-539
  GI50: 25.2 µM (inactive)
SK-MEL-28
  GI50: > 100 µM (inactive)
SK-MEL-2
  GI50: 28.9 µM (inactive)
SK-MEL-5
  GI50: 53.1 µM (inactive)
SK-OV-3
  GI50: > 100 µM (inactive)
SN12C
  GI50: > 100 µM (inactive)
SNB-19
  GI50: > 100 µM (inactive)
SNB-75
  GI50: 23.9 µM (inactive)
SR
  GI50: 20.4 µM (inactive)
SW-620
  GI50: > 100 µM (inactive)
T47D
  GI50: 30.1 µM (inactive)
TK-10
  GI50: > 100 µM (inactive)
U-251
  GI50: 18.9 µM (inactive)
UACC-257
  GI50: > 100 µM (inactive)
UACC-62
  GI50: 13.6 µM (inactive)
UO-31
  GI50: 0.0502 µM (active)

## C[C@@H](C(=O)O)c1ccc(-c2ccccc2)c(F)c1 [TARENFLURBIL]
786-0
  GI50: > 100 µM (inactive)
A498
  GI50: > 100 µM (inactive)
ACHN
  GI50: > 100 µM (inactive)
CAKI-1
  GI50: > 100 µM (inactive)
CCRF-CEM
  GI50: > 100 µM (inactive)
COLO 205
  GI50: > 100 µM (inactive)
DU-145
  GI50: > 100 µM (inactive)
HCC 2998
  GI50: > 100 µM (inactive)
HCT-116
  GI50: > 100 µM (inactive)
HOP-92
  GI50: > 100 µM (inactive)
HT-29
  GI50: > 100 µM (inactive)
IGROV-1
  GI50: > 100 µM (inactive)
K562
  GI50: > 100 µM (inactive)
KM12
  GI50: > 100 µM (inactive)
LOX IMVI
  GI50: > 100 µM (inactive)
M14
  GI50: > 100 µM (inactive)
MDA-MB-231
  GI50: > 100 µM (inactive)
MOLT-4
  GI50: > 100 µM (inactive)
NCI-H23
  GI50: > 100 µM (inactive)
NCI-H460
  GI50: > 100 µM (inactive)
NCI/ADR-RES
  GI50: > 100 µM (inactive)
OVCAR-3
  GI50: > 100 µM (inactive)
OVCAR-4
  GI50: > 100 µM (inactive)
OVCAR-5
  GI50: > 100 µM (inactive)
OVCAR-8
  GI50: > 100 µM (inactive)
PC-3
  GI50: > 100 µM (inactive)
RPMI-8226
  GI50: > 100 µM (inactive)
RXF 393
  GI50: > 100 µM (inactive)
SF-295
  GI50: > 100 µM (inactive)
SK-MEL-5
  GI50: > 100 µM (inactive)
SK-OV-3
  GI50: > 100 µM (inactive)
SNB-19
  GI50: > 73.6 µM (inactive)
SR
  GI50: > 100 µM (inactive)
SW-620
  GI50: > 100 µM (inactive)
T47D
  GI50: > 100 µM (inactive)
TK-10
  GI50: > 100 µM (inactive)
U-251
  GI50: > 100 µM (inactive)
UACC-257
  GI50: > 100 µM (inactive)
UACC-62
  GI50: > 100 µM (inactive)
UO-31
  GI50: > 71.9 µM (inactive)
